In patent publication US11897961B2, “Anti-CD123 antibodies and conjugates and derivatives thereof” (IMMUNOGEN, INC., priority 2015, dated 2024):

Columns and labels:
EOL-1 cells = assay: EOL-1 subcutaneous model in athymic nude mice, third study
[1] = system: normal blood cells / normal progenitor cells versus AML progenitors; assay: Cytotoxicity on normal blood / normal progenitor cells versus AML progenitors; format: cell-based, human; conditions: FIG. 11E and FIG. 19
TF-1 cells [2] = assay: Proliferation of TF-1 cells grown in the presence of GM-CSF (IL-3-dependence control); format: cell-based, human; conditions: GM-CSF 2 ng/mL
Protocol: (§1) The ability of anti-CD123 antibodies to inhibit IL3-mediated signaling and proliferation was examined in vitro using the erythroleukemia cell line TF-1 that can proliferate only in the presence of one of the following growth factors, either IL-3 or GM-CSF. TF-1 cells were cultured in the complete RPMI medium (RPMI-1640, 10% fetal bovine serum and 50 μg/mL gentamicin sulfate; all reagents were from Invitrogen) supplemented with GM-CSF (2 ng/mL). Prior to setting up the proliferation assays, the cells were washed and then starved of the growth factors overnight. […] TF-1 cells were plated at 6,000 cells per well in the complete RPMI medium in either the presence or absence of 10 μg/mL of an anti-CD123 antibody. A growth factor, either IL-3 (1 ng/mL) or GM-CSF (2 ng/mL), was added to the cells to initiate cell proliferation. […] The relative numbers of viable cells in each well were determined by the colorimetric WST-8 assay (Dojindo Molecular Technologies, Inc., Rockville, MD, US). WST-8 is reduced by dehydrogenases in viable cells to an orange formazan product that is soluble in tissue culture medium. The amount of formazan produced is directly proportional to the number of viable cells. […] Then the absorbance was measured on a plate-reader spectrophotometer in the dual wavelength mode 450 nm/650 nm, and the absorbance at the 650 nm (non-specific light scattering by cells) was subtracted from that at the 450 nm.

TF-1 cells [3] = assay: Inhibition of IL-3-dependent proliferation of TF-1 cells (WST-8); format: cell-based, human; conditions: dose-response
Protocol: as §1, with “US).” for “US). WST-8 is reduced by dehydrogenases in viable cells to an orange formazan product that is soluble in tissue culture medium. The amount of formazan produced is directly proportional to the number of viable cells.”
TF-1 cells were plated at 6,000 cells per well in 100 μL culture medium. […] Relative cell number in each well was determined by WST-8 assay as described above. […]

**Q.** With `Nc1ncn([C@@H]2O[C@H](CO)[C@@H](O)[C@H]2O)c(=O)n1` [Azacitidine] as the molecule, how does the “% T/C (Day 16)” value (EOL-1 cells; 3.75 mg/kg, q3d × 5, i.p.) read?
**A.** Its value is 59%.

**Q.** What about the CR (EOL-1 cells; 3.75 mg/kg, q3d × 5, i.p.) of the same molecule?
**A.** Its CR is 0/8.

**Q.** What about the PR (EOL-1 cells; 3.75 mg/kg, q3d × 5, i.p.) of the same molecule?
**A.** Its PR is 0/8.

**Q.** What about the Result (EOL-1 cells; 3.75 mg/kg, q3d × 5, i.p.) of the same molecule?
**A.** The Result was “Inactive”.

**Q.** How did the “% T/C (Day 16)” value (EOL-1 cells; 75 mg/kg, qd × 5, i.p.) turn out when `Nc1ccn([C@@H]2O[C@H](CO)[C@@H](O)[C@@H]2O)c(=O)n1` [Cytarabine] was run?
**A.** The value was 84%.

**Q.** And the CR (EOL-1 cells; 75 mg/kg, qd × 5, i.p.)?
**A.** The CR was 0/8.

**Q.** What about the PR (EOL-1 cells; 75 mg/kg, qd × 5, i.p.) of the same molecule?
**A.** The PR was 0/8.

**Q.** And the Result (EOL-1 cells; 75 mg/kg, qd × 5, i.p.)?
**A.** Its Result is “Inactive”.

**Q.** With gemtuzumab ozogamicin [Mylotarg] as the molecule, how does the “fold difference in cytotoxicity between normal blood/progenitor cells and AML progenitor cells” value [1] read?
**A.** Its value is 10 fold.

B1: muCD123-3: murine anti-CD123 monoclonal antibody, HCVR SEQ ID NO: 26, LCVR SEQ ID NO: 27 (antibody, V domains shown)
VH: EFQLQQSGPEVVKPGASVKMSCKASGYTFTSYVMHWMKQKPGQGLEWIGYIKPYKDGTKYNEKFKGKATLISDKPSSTAYMELSSLTSEDSAVYYCAREGENGYYDAMDYWGQGTSVTVSS
VL: DIQMTQSPSSLSASLGGKVTITCKASQDINKYIAWYQHKPGKGPRLLIHYTSTLQPGIPSRFSGSGSGRDYSFSISNLEPEDIATYYCLQYDNLLYTFGGGTKLELKR
**Q.** How did the “effect on TF-1 cell proliferation in the presence of GM-CSF” value (from here on “effect on TF-1 cell proliferation”) (TF-1 cells [2]) turn out when B1 was run?
**A.** The value was “no inhibitory effect”.

B2: muCD123-6: murine anti-CD123 monoclonal antibody, HCVR SEQ ID NO: 28, LCVR SEQ ID NO: 29 (antibody, V domains shown)
VH: EFQLQQSGPELVKPGASVKMSCKASGYIFTSSIMHWMKQKPGQGLEWIGYIKPYNDGTKYNEKFKGKATLTSDKSSSTANMELNSLTSEDSAVYYCAREGGNDYYDTMDYWGQGTSVTVSS
VL: DIKMTQSPSSMYASLGERVTITCKASQDINSYLSWFQQKPGKSPKTLIYRVNRLVDGVPSRFSGSGSGQDYSLTISSLEYEDMGIYYCLQYDAFPYTFGGGTKLEIKR
**Q.** For B2, which “effect on TF-1 cell proliferation” value (TF-1 cells [2]) is on record?
**A.** Its value is “no inhibitory effect”.

B3: chCD123-6: chimeric antibody: mouse HCVR/LCVR SEQ ID NOs: 28 and 29 with human IgG1 and Kappa constant sequences (antibody, V domains shown)
VH: EFQLQQSGPELVKPGASVKMSCKASGYIFTSSIMHWMKQKPGQGLEWIGYIKPYNDGTKYNEKFKGKATLTSDKSSSTANMELNSLTSEDSAVYYCAREGGNDYYDTMDYWGQGTSVTVSS
VL: DIKMTQSPSSMYASLGERVTITCKASQDINSYLSWFQQKPGKSPKTLIYRVNRLVDGVPSRFSGSGSGQDYSLTISSLEYEDMGIYYCLQYDAFPYTFGGGTKLEIKR
modifications: human IgG1 and kappa constant regions
**Q.** Which “inhibition of IL-3-dependent proliferation of TF-1 cells (in words)” value (TF-1 cells [3]) does the source give for B3 here?
**A.** The value was “completely inhibited at 1 nM”.

**Q.** And the “effect on TF-1 cell proliferation” value (TF-1 cells [2])?
**A.** The value was “no inhibitory effect”.

B4: muCD123-14: murine anti-CD123 monoclonal antibody, HCVR SEQ ID NO: 30, LCVR SEQ ID NO: 31 (antibody, V domains shown)
VH: EVKLVESGGDLVKPGGSLKLSCAASGFTFSNYAMSWVRQNSEKRLEWVATINSGGSFTYYPDSVKGRFTISRDNAKDSLYLQMSSLNSEDTAMYYCARQSEAYYGYDKRTWFAYWGQGTLVTVSS
VL: DILLTQSPAILSVSPGTRVSFSCRASQSVGTSIHWYQQRPNGFPRLLIKYASESISGIPSRFSGSGSGTDFTLNINSVESEDIADYYCQQSKSWPLTFGAGTKLELKR
**Q.** Which “effect on TF-1 cell proliferation” value (TF-1 cells [2]) does the source give for B4 here?
**A.** Its value is “no inhibitory effect”.
